Converted amounts (≈) assume the structure as drawn.
What was measured:
Canis familiaris [1] = species on record: Canis familiaris; assay: Action potential duration at 95% of repolarization was determined at 10 uM concentration on Isolated Canine Purkinje Fibers; type: functional, Canis lupus familiaris, Purkinje fiber
Canis familiaris [2] = species on record: Canis familiaris; assay: Resting potential on Isolated Canine Purkinje Fibers at 10 uM concentration; type: functional, Canis lupus familiaris, Purkinje fiber
Canis familiaris [3] = species on record: Canis familiaris; assay: Action potential amplitude at 10 uM concentration on Isolated Canine Purkinje Fibers was determined; type: functional, Canis lupus familiaris, Purkinje fiber
Canis familiaris [4] = species on record: Canis familiaris; assay: Maximal rate of depolarization at 10 uM concentration on Isolated Canine Purkinje Fibers; type: functional; conditions: Canis lupus familiaris, Purkinje fiber
Canis familiaris [5] = species on record: Canis familiaris; assay: Action potential duration at 50% of repolarization was determined at 10 uM concentration on Isolated Canine Purkinje Fibers; type: functional, Canis lupus familiaris, Purkinje fiber
Canis familiaris [6] = species on record: Canis familiaris; assay: Compound was evaluated for conduction time from stimulating to intracellular recording electrode at 10 uM concentration on Isolated Canine Purkinje Fibers; type: functional, Canis lupus familiaris, Purkinje fiber
[7] = Oxidation potential as carbon paste disc electrode against a Ag/AgCl reference electrode
Homo sapiens [8] = species on record: Homo sapiens; assay: Inhibition of C5a-induced luminol dependent chemiluminescence of human neutrophils; NS - Not sufficiently soluble in saline for testing; type: functional
Oryctolagus cuniculus = species on record: Oryctolagus cuniculus; assay: In vitro inhibition of iron-dependent peroxidation of rabbit brain vesicular membrane lipids; type: functional
Canis familiaris [9] = species on record: Canis familiaris; assay: Resting potential on Isolated Canine Purkinje Fibers at 100 uM concentration; type: functional, Canis lupus familiaris, Purkinje fiber
Canis familiaris [10] = species on record: Canis familiaris; assay: Compound was evaluated for conduction time from stimulating to intracellular recording electrode at 100 uM concentration on Isolated Canine Purkinje Fibers; type: functional, Canis lupus familiaris, Purkinje fiber
[11] = Plasma concentration in dogs when measured 1 and 5 hours following initiation of reperfusion at 300 min; type: ADME, organism-based, Canis lupus familiaris; conditions: dog
[12] = Plasma concentration in dogs when measured 1 and 5 hours following initiation of reperfusion at 60 min; type: ADME, organism-based, Canis lupus familiaris; conditions: dog
[13] = Plasma concentration in dogs when measured 1 and 5 hours following initiation of reperfusion at 30 min; type: ADME, organism-based, Canis lupus familiaris; conditions: dog
Canis familiaris [14] = species on record: Canis familiaris; assay: Maximal rate of depolarization at 100 uM concentration on Isolated Canine Purkinje Fibers; type: functional; conditions: Canis lupus familiaris, Purkinje fiber
Canis familiaris [15] = species on record: Canis familiaris; assay: Action potential amplitude at 100 uM concentration on Isolated Canine Purkinje Fibers was determined; type: functional, Canis lupus familiaris, Purkinje fiber
Canis familiaris [16] = species on record: Canis familiaris; assay: Action potential duration at 50% of repolarization was determined at 100 uM concentration on Isolated Canine Purkinje Fibers; type: functional, Canis lupus familiaris, Purkinje fiber
Homo sapiens [17] = species on record: Homo sapiens; assay: Inhibition of C5a-induced luminol dependent chemiluminescence of human neutrophils; type: functional
Homo sapiens [18] = species on record: Homo sapiens; assay: Inhibition of C5a-induced luminol dependent chemiluminescence of human neutrophils; NA - compound found inactive at 10 uM; type: functional

Compound	E1/2 [7]	MIC (Oryctolagus cuniculus)	EC50 (Homo sapiens [17])	APD95 (Canis familiaris [1])	RP (Canis familiaris [2])	APA (Canis familiaris [3])	Vmax (Canis familiaris [4])	APD50 (Canis familiaris [5])	CT (Canis familiaris [6])	other results
CCN(CC)c1nc(NCCNC(=O)c2ccc(F)cc2)c2ccccc2n1.O=C(O)C(=O)O				1 ms	-3 mV	-15 mV	-54 V s-1	-48 ms	72 ms	
CCN(CC)c1nc(NCCNC(=O)c2cc(OC)c(OC)c(OC)c2)c2ccccc2n1 [listing 1 of 2 here]				-24 ms	-4 mV	-14.4 mV		-46 ms	123 ms	
CCN(CC)c1nc(NCCNC(=O)c2ccccc2)c2ccccc2n1.O=C(O)C(=O)O				-2 ms	-3 mV	-15 mV	-43 V s-1	-34 ms	119 ms	
CCN(CC)c1nc(NCCNC(=O)c2ccc(OC)cc2)c2ccccc2n1.O=C(O)C(=O)O				-5 ms	-6 mV	-11 mV	-30 V s-1	-35 ms	17 ms	
CCN(CC)c1nc(NCCNC(=O)c2ccccc2OC)c2ccccc2n1				15 ms	-15 mV	-31 mV	-71 V s-1	-24 ms	71 ms	
CCN(CC)c1nc(NCCNC(=O)c2ccc(C(F)(F)F)cc2)c2ccccc2n1.O=C(O)C(=O)O				2 ms	-7 mV	-23 mV	-62 V s-1	-24 ms	79 ms	

Continued, in another order:

E1/2 [7]	MIC (Oryctolagus cuniculus)	EC50 (Homo sapiens [17])	Compound	APD95 (Canis familiaris [1])	RP (Canis familiaris [2])	APA (Canis familiaris [3])	Vmax (Canis familiaris [4])	APD50 (Canis familiaris [5])	CT (Canis familiaris [6])	other results
> 600 mV			CCN(CC)c1nc(NCCNC(=O)c2cc(OC)c(OC)c(OC)c2)c2ccccc2n1 [listing 2 of 2 here]				-40 V s-1			
440 mV	> 100 µM		CCN(CC)c1nc(NCCNC(=O)c2cc(O)c(OC)c(OC)c2)c2ccccc2n1.CS(=O)(=O)O							EC50 (Homo sapiens [8]): Not Active
15 mV	3 µM	300 nM	CCN(CC)c1nc(NCCNC(=O)c2cc(O)c(O)c(O)c2)c2ccccc2n1.CS(=O)(=O)O	1 ms	0 mV	0 mV	-2 V s-1	-1 ms	7 ms	RP (Canis familiaris [9]): -4 mV; APA (Canis familiaris [10]): -9 mV; CT (Canis familiaris [10]): 11 ms; concentration at 5 h [11]: 1300 ng/mL; concentration at 60 min [12]: 1700 ng/mL; concentration at 30 min [13]: 240 ng/mL; Vmax (Canis familiaris [14]): -32 V s-1; APD50 (Canis familiaris [15]): -13 ms; APD95 (Canis familiaris [16]): 11 ms
	> 100 µM		CCN(CC)c1nc(NCCNC(=O)c2cc(OC)c(OC)c(OC)c2)c2ccccc2n1.CS(=O)(=O)O							EC50 (Homo sapiens [18]): Not Active
340 mV	> 100 µM	3300 nM	CCN(CC)c1nc(NCCNC(=O)c2cc(OC)c(O)c(OC)c2)c2ccccc2n1							
320 mV	> 100 µM	9500 nM	CCN(CC)c1nc(NCCNC(=O)c2cc(O)c(OC)c(O)c2)c2ccccc2n1							
130 mV	10 µM (≈ 4.25 µg/mL)	900 nM	CCN(CC)c1nc(NCCNC(=O)c2cc(O)c(O)c(OC)c2)c2ccccc2n1							

From ChEMBL document CHEMBL1126458, “Structurally novel antiarrhythmic / antioxidant quinazolines” (Bioorg Med Chem Lett, 1992)
